Key:
[1] = molecular target: T1, Human melanin-concentrating hormone (MCH1) (Homo sapiens, UniProt Q99705); assay: Radioligand binding, human melanin-concentrating hormone MCH1 membranes, FlashPlate, [125I]-S36057; settings: compound at 10 μM; for A6: inhibition of radioligand binding: [125I]-S36057, human MCH1 membranes
T1 construct: purchased Perkin Elmer Biosignal
Procedure, shortened: (§1)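 Cloned human receptor membranes were coated onto FlashPlate wells and incubated with radioligand and compound (added from a 0.5 mM DMSO daughter plate) for 1 hour at room temperature in the dark. Scintillation counting gave percent inhibition, with DMSO defining total and reference ligand defining non-specific binding.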

[2] = molecular target: T2, Human neurokinin (NK1) (Homo sapiens, UniProt P25103); assay: Radioligand binding, human neurokinin NK1 membranes, filtration, [125I]-Substance P; settings: compound at 10 μM, [125I]-Substance P; for A8: inhibition of radioligand binding: human NK1 membranes
T2 construct: purchased Perkin Elmer Biosignal
Procedure, shortened: (§2)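 Membranes from cloned human receptors were incubated with compound and radioligand for 1 hour at room temperature. Bound ligand was collected on 0.3% PEI-soaked filters, washed with cold 50 mM Tris-HCl pH 7.4, and counted by scintillation. Percent inhibition was computed against DMSO totals and reference-ligand nonspecific wells.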

[3] = molecular target: T3, Human neuropeptide Y (NPY-Y1) (Homo sapiens, UniProt P25929); assay: Radioligand binding, human neuropeptide Y NPY-Y1 membranes, FlashPlate, [125I]-PYY; settings: compound at 10 μM, [125I]-PYY; for A9: inhibition of radioligand binding: human NPY-Y1 membranes
T3 construct: purchased Perkin Elmer Biosignal
T3 sequence (P25929 1-384): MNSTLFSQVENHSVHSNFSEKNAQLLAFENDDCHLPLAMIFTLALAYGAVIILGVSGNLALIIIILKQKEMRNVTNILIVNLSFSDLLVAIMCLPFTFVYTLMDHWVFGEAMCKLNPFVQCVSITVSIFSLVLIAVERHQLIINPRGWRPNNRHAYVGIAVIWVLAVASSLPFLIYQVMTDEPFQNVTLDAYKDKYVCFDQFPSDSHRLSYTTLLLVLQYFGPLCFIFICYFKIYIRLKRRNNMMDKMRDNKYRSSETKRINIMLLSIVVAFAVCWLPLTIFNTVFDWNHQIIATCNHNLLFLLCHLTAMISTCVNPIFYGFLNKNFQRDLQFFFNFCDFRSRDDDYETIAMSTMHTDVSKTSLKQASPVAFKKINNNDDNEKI
Procedure, shortened: as §1

[4] = molecular target: T4, Human melanocortin (MC5) (Homo sapiens, UniProt P33032); assay: Radioligand binding, human melanocortin MC5 membranes, FlashPlate, [125I]-NDP-αMSH; settings: compound at 10 μM, [125I]-NDP-αMSH; for A5: inhibition of radioligand binding: human MC5 membranes
T4 construct: purchased Perkin Elmer Biosignal
Procedure, shortened: as §1

[5] = molecular target: T5, Human Melanocortin (MC3) (Homo sapiens, UniProt P41968); assay: Radioligand binding, human melanocortin MC3 membranes, FlashPlate, [125I]-NDP-αMSH; settings: compound at 10 μM, [125I]-NDP-αMSH; for A3: inhibition of radioligand binding: human MC3 membranes
T5 construct: purchased Perkin Elmer Biosignal
Procedure, shortened: as §1

[6] = molecular target: T6, Mouse urotensin (mUR2) (Mus musculus, UniProt Q8VIH9); assay: Radioligand binding, mouse urotensin mUR2 membranes, FlashPlate, [125I]-Urotensin II; settings: compound at 10 μM, [125I]-Urotensin II; for A11: inhibition of radioligand binding: mouse mUR2 membranes
T6 construct: purchased Perkin Elmer Biosignal
T6 sequence (Q8VIH9 1-385): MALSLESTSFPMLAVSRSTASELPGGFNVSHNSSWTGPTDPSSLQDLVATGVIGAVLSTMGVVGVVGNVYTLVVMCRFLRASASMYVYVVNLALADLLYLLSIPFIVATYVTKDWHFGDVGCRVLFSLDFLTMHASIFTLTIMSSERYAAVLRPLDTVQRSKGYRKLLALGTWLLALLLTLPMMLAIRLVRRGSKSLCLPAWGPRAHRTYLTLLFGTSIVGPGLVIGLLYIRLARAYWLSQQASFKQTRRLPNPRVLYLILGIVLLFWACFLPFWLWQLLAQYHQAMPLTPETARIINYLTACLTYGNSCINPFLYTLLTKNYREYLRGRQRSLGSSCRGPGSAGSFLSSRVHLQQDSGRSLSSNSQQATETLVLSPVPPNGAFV
Procedure, shortened: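 Cloned mouse urotensin (mUR2) receptor membranes from Perkin Elmer Biosignal were immobilized in FlashPlate microplates using a proprietary coating. Each well got 19.5 μl buffer, then 0.5 μl of DMSO, reference ligand, or compound. Adding 5 μl of [125I]-Urotensin II, diluted to 5× final concentration in binding buffer, started binding. Plates were sealed with TopSeal-A and incubated 1 hour at room temperature in the dark. Wells were counted for 30 seconds each on a TopCount after a 60-second delay, and percentage inhibition was calculated.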

[7] = molecular target: T7, Human μ-opioid (MOP) (Homo sapiens, UniProt P35372); assay: Radioligand binding, human μ-opioid (MOP) membranes, FlashPlate, [3H]-Naloxone; settings: compound at 10 μM, [3H]-Naloxone; for A7: inhibition of radioligand binding: human MOP membranes
T7 construct: purchased Perkin Elmer Biosignal
Procedure, shortened: as §1

[8] = molecular target: T8, Human δ-opioid (DOP) (Homo sapiens, UniProt P41143); assay: Radioligand binding, human δ-opioid (DOP) membranes, FlashPlate, [3H]-Bremazocine; settings: compound at 10 μM, [3H]-Bremazocine; for A1: inhibition of radioligand binding: human DOP membranes
T8 construct: purchased Perkin Elmer Biosignal
Procedure, shortened: as §1

[9] = molecular target: T9, Human opioid (ORL1) (Homo sapiens, UniProt P41146); assay: Radioligand binding, human opioid ORL1 membranes, FlashPlate, [125I]-Nociceptin; settings: compound at 10 μM, [125I]-Nociceptin; for A10: inhibition of radioligand binding: human ORL1 membranes, 10 µM
T9 construct: purchased Perkin Elmer Biosignal
Procedure, shortened: as §1

[10] = molecular target: T10, Human κ-Opioid (KOP) (Homo sapiens, UniProt P41145); assay: Radioligand binding, human κ-opioid (KOP) membranes, filtration, [3H]-Diprenorphine; settings: compound at 10 μM, [3H]-Diprenorphine, 10 µM; for A2: inhibition of radioligand binding: human KOP membranes
T10 construct: purchased Perkin Elmer Biosignal
Procedure, shortened: as §2

[11] = molecular target: T11, Human Melanocortin (MC4) (Homo sapiens, UniProt P32245); assay: Radioligand binding, human melanocortin MC4 membranes, FlashPlate, [125I]-NDP-αMSH; settings: compound at 10 μM, [125I]-NDP-αMSH; for A4: inhibition of radioligand binding: human MC4 membranes
T11 construct: purchased Perkin Elmer Biosignal
Procedure, shortened: as §1

T10 sequence (P41145 whole entry): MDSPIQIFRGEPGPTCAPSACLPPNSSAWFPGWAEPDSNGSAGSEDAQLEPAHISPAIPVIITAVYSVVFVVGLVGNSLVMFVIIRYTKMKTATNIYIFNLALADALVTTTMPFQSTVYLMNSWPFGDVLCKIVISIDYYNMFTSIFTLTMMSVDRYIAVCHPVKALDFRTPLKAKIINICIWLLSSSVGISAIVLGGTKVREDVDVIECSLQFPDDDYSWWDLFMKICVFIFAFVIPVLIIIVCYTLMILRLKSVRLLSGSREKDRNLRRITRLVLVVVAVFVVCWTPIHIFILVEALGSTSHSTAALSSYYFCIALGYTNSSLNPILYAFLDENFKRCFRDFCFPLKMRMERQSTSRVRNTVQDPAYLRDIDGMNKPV
T7 sequence (P35372 whole entry): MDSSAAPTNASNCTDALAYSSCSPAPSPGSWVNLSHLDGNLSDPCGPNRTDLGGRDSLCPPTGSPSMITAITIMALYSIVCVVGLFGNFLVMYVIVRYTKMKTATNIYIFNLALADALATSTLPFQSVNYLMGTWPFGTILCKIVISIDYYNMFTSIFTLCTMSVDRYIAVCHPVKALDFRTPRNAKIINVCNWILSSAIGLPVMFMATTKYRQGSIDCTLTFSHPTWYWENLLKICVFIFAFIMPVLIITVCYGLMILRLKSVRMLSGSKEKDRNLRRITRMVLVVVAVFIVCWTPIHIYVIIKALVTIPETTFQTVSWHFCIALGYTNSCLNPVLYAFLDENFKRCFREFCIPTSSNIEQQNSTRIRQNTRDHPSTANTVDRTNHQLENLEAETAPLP
T2 sequence (P25103 whole entry): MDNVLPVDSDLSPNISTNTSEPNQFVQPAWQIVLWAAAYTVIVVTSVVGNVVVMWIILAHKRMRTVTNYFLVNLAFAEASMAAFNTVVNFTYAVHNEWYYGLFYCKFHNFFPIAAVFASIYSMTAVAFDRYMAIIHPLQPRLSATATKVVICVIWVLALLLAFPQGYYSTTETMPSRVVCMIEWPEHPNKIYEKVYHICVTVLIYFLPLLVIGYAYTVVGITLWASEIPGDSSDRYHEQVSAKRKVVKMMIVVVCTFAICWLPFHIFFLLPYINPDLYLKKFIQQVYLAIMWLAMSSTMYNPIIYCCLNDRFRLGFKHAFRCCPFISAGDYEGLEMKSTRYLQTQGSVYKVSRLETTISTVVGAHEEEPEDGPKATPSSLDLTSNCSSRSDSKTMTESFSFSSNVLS
T4 sequence (P33032 whole entry): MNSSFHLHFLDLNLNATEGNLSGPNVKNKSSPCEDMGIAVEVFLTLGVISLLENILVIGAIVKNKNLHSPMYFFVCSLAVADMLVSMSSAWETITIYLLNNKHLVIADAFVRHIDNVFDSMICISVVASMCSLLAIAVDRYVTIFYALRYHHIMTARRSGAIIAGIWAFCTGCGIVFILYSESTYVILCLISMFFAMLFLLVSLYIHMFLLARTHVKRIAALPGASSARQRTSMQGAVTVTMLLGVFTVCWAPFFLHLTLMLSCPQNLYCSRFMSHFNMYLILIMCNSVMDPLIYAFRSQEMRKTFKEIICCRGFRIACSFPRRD
T1 sequence (Q99705 whole entry): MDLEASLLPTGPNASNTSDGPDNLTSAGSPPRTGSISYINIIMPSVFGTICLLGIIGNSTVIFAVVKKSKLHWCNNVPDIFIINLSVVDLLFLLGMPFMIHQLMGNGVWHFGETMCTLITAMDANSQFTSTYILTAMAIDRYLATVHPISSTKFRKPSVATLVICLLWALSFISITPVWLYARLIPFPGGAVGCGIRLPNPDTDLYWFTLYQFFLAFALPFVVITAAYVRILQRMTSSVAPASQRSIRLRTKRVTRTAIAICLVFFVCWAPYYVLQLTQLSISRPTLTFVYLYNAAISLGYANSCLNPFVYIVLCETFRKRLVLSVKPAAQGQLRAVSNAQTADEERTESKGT
T8 sequence (P41143 whole entry): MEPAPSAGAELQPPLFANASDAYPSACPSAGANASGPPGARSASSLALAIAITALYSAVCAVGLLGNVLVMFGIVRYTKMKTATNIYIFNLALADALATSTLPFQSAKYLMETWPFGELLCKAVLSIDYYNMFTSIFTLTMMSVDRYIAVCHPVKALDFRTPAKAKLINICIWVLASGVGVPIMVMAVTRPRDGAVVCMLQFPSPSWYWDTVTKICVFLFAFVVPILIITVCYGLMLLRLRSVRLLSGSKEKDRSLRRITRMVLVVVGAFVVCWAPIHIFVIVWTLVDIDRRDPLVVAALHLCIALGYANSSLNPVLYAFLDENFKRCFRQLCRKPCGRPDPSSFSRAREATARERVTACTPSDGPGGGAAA
T9 sequence (P41146 whole entry): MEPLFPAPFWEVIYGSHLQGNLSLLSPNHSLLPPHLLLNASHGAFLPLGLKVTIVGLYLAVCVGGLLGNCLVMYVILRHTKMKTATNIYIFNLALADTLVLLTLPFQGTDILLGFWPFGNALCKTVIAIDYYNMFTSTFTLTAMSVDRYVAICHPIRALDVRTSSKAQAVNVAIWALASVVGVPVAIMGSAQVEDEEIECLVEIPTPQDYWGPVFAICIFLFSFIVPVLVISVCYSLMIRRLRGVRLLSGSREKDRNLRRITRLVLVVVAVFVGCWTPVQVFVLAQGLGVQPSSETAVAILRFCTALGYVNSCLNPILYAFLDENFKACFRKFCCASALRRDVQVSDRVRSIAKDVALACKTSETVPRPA
T5 sequence (P41968 whole entry): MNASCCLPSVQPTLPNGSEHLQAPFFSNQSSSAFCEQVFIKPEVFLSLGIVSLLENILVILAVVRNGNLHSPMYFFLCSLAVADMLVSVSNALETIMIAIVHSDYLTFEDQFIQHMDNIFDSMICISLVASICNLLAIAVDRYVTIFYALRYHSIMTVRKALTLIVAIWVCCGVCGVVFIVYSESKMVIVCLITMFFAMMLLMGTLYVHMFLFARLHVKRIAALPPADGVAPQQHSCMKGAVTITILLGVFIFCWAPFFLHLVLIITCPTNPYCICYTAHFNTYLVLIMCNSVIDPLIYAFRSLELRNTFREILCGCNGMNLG
T11 sequence (P32245 whole entry): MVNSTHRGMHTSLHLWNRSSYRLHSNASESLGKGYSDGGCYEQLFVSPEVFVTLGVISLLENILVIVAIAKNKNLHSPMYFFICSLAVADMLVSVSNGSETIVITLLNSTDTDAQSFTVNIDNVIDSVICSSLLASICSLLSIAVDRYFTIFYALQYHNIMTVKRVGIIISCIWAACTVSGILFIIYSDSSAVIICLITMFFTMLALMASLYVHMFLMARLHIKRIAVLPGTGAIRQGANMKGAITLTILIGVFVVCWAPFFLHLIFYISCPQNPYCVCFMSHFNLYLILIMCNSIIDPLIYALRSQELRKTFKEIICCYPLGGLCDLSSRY

Compound	A8: inhibition of radioligand binding [2]	A9: inhibition of radioligand binding [3]	A5: inhibition of radioligand binding [4]	A3: inhibition of radioligand binding [5]	A11: inhibition of radioligand binding [6]	A1: inhibition of radioligand binding [8]	A10: inhibition of radioligand binding [9]	A2: inhibition of radioligand binding [10]	A4: inhibition of radioligand binding [11]	other results
NCCCC(=O)NC1C(OCc2ccc3ccccc3c2)OC(COCc2ccc(Cl)cc2)C(O)C1OCc1ccc2ccccc2c1 (stereo not drawn) [compound 395]	+ (“+” indicates greater than 50% inhibition at 10 μM)	− (“−” indicates less than 50% inhibition at 10 μM)	+ (“+” indicates greater than 50% inhibition at 10 μM)	+ (“+” indicates greater than 50% inhibition at 10 μM)	− (“−” indicates less than 50% inhibition at 10 μM)	− (“−” indicates less than 50% inhibition at 10 μM)	+ (“+” indicates greater than 50% inhibition at 10 μM)	− (“−” indicates less than 50% inhibition at 10 μM)	+ (“+” indicates greater than 50% inhibition at 10 μM)	A6: inhibition of radioligand binding ([1]; 10 µM): − (“−” indicates less than 50% inhibition at 10 μM); A7: inhibition of radioligand binding [7]: − (“−” indicates less than 50% inhibition at 10 μM)
NCCCC(=O)NC1C(OCc2ccc3ccccc3c2)OC(COCc2ccc3ccccc3c2)C(O)C1OCc1ccc(Cl)cc1 (single isomer, unassigned) [compound 455]	+ (“+” indicates greater than 50% inhibition at 10 μM)	− (“−” indicates less than 50% inhibition at 10 μM)	+ (“+” indicates greater than 50% inhibition at 10 μM)	+ (“+” indicates greater than 50% inhibition at 10 μM)	− (“−” indicates less than 50% inhibition at 10 μM)	− (“−” indicates less than 50% inhibition at 10 μM)	− (“−” indicates less than 50% inhibition at 10 μM)	+ (“+” indicates greater than 50% inhibition at 10 μM)	+ (“+” indicates greater than 50% inhibition at 10 μM)	A6: inhibition of radioligand binding [1]: + (“+” indicates greater than 50% inhibition at 10 μM); A7: inhibition of radioligand binding ([7]; 10 µM): + (“+” indicates greater than 50% inhibition at 10 μM)
N=C(N)NCCC(=O)N[C@H]1C(OCc2ccc(Cl)cc2)O[C@H](COCc2ccc3ccccc3c2)[C@@H](O)[C@@H]1OCc1ccc2ccccc2c1 (stereo partly drawn) [compound 528]	–	–	–	–	–	–	–	–	–	A6: inhibition of radioligand binding, human melanin-concentrating hormone (MCH1) ([1]; [125I]-S36057, 10 µM): − (“−” indicates less than 50% inhibition at 10 μM); A8: inhibition of radioligand binding, human neurokinin (NK1) [2]: + (“+” indicates greater than 50% inhibition at 10 μM); A9: inhibition of radioligand binding, human neuropeptide Y (NPY-Y1) [3]: − (“−” indicates less than 50% inhibition at 10 μM); A5: inhibition of radioligand binding, human melanocortin (MC5) ([4]; 10 µM): − (“−” indicates less than 50% inhibition at 10 μM); A3: inhibition of radioligand binding, human melanocortin (MC3) ([5]; 10 µM): − (“−” indicates less than 50% inhibition at 10 μM); A11: inhibition of radioligand binding, mouse urotensin (mUR2) [6]: − (“−” indicates less than 50% inhibition at 10 μM); A7: inhibition of radioligand binding, human μ-opioid (MOP) [7]: − (“−” indicates less than 50% inhibition at 10 μM); A1: inhibition of radioligand binding, human δ-opioid (DOP) [8]: − (“−” indicates less than 50% inhibition at 10 μM); A10: inhibition of radioligand binding, human opioid (ORL1) [9]: − (“−” indicates less than 50% inhibition at 10 μM); A2: inhibition of radioligand binding, human κ-opioid (KOP) [10]: − (“−” indicates less than 50% inhibition at 10 μM); A4: inhibition of radioligand binding, human melanocortin (MC4) ([11]; 10 µM): − (“−” indicates less than 50% inhibition at 10 μM)

Source: US20080009418A1, “Selective Inhibitors” (Alchemia LTD., priority 2004, published 2008)
